Results: article PMC3541179, “Structural Insights into the Dual Strategy of Recognition by Peptidoglycan Recognition Protein, PGRP-S: Structure of the Ternary Complex of PGRP-S with Lipopolysaccharide and Stearic Acid” (PLoS ONE, 2013)

Molecular target: T1, CPGRP-S (camel short peptidoglycan recognition protein, PGRP-S) (Camelus dromedarius, UniProt Q9GK12)
T1 construct: gene PGLYRP1; native, purified from camel milk; full mature chain, residues 1-171, about 19-20 kDa; A-B and C-D contacts forming a linear polymer, 4 molecules in the asymmetric unit
Test: X-ray crystallography (soaked crystals, […] A); SPR on immobilized protein also shows binding
Conditions: ternary complex with LPS at Site-1 (C-D contact); SA at Site-2 (A-B contact); crystals soaked in 70% reservoir solution and 30% ethanol
Text: (camel short peptidoglycan recognition protein, PGRP-S) | SA is placed in the cleft at the A-B contact

T1 sequence (Q9GK12 23-193): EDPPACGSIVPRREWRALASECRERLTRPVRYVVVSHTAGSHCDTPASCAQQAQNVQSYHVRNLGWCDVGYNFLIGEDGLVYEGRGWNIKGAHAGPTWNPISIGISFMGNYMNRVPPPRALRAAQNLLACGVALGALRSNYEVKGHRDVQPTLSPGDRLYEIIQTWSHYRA

CCCCCCCCCCCCCCCCCC(=O)O [SA, stearic acid]
X-ray crystallography (soaked crystals, 2.8 A); SPR on immobilized protein also: SA is placed in the cleft at the A–B contact
